What was measured:
Human Mer = target: T1, Human Mer (Homo sapiens, UniProt Q12866); experiment: Human Mer kinase assay (33P radiometric / HTRF KinEase); format: biochemical; settings: protocols of Examples C-1 and/or C-2
T1 construct: Human Mer (residues R557-E882 with H628Q and R794A, 0.7 nM); purchased Eurofins Pharma Discovery Services UK Limited (KinaseProfiler service)
T1 sequence (Q12866 557-882 limits assumed): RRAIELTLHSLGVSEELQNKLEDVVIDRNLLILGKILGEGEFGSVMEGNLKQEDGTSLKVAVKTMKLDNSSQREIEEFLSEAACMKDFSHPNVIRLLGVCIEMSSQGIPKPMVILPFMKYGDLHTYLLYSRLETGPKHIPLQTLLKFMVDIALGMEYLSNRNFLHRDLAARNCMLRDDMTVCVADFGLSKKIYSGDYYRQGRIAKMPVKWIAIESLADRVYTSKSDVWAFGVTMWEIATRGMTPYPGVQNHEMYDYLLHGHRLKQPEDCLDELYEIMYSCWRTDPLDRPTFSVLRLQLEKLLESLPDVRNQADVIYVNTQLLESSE
How it was run: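 Two formats yield IC50 values. HTRF KinEase used MER residues 528-999 with ATP at Km (40 μM), 1 μM biotin-peptide, 60 min RT, […], 10 concentrations. 33P filter assay used 0.7 nM Mer R557-E882 (H628Q/R794A), 10 μM ATP, 250 μM peptide, 40 min RT, top 1 μM.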

Human Met = target: T2, Human Met (Homo sapiens, UniProt P08581); experiment: Human Met kinase assay (33P radiometric / HTRF KinEase); format: biochemical; settings: protocols of Examples D-1 and/or D-2; read-out: c-Met IC50
T2 construct: Human MET (residues 956-1390)
T2 sequence (P08581 974-1390 limits assumed): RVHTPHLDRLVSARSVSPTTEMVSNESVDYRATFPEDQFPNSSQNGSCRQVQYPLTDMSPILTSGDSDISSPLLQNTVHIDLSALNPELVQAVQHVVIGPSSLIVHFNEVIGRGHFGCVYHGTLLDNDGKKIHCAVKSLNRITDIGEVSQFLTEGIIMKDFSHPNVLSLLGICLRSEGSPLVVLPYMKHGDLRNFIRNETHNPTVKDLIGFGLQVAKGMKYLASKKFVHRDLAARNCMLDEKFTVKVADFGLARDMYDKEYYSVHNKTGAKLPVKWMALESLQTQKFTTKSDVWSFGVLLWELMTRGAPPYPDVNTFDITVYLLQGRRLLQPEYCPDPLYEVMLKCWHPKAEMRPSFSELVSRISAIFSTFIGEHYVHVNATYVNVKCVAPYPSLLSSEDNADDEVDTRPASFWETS
How it was run: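 Two formats gave IC50s by curve fitting. HTRF KinEase used MET residues 956-1390 with 1 μM biotin-peptide and 3.0 μM ATP (Km) for 40 min at room temperature, ten doses in 3% DMSO, 665/620 nm read. The 33P transfer assay used mutant Met R974-S1390 A1209G/V1290L (3.4 nM), 10 μM ATP, 250 μM peptide, pH 7.0, 40 min, nine doses from 1 μM.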

Row | Structure (SMILES) | IC50 (Human Mer) | IC50 (Human Met)
1 | COc1cc2nccc(Oc3ccc(NC(=O)c4c(C)cc(C)n(C5CCCC5)c4=O)cc3F)c2nc1OC [Compound 15, 1-Cyclopentyl-N-[4-[(6,7-dimethoxy-1,5-naphthyridin-4-yl)oxy]-3-fluorophenyl]-4,6-dimethyl-2-oxopyridine-3-carboxamide] | ≤ 100 nM | ≤ 100 nM
2 | COc1cc2nccc(Oc3ccc(NC(=O)c4cnc(C)c(C5=CCCC5)c4O)cc3)c2cc1OC [Compound 16, 5-(Cyclopenten-1-yl)-N-[4-(6,7-dimethoxyquinolin-4-yl)oxyphenyl]-4-hydroxy-6-methylpyridine-3-carboxamide] | ≤ 100 nM | ≤ 100 nM
3 | COc1cc2nccc(Oc3ccc(NC(=O)c4cnc(C)c(C5=CCOCC5)c4O)cc3)c2cc1OC [Compound 17, 5-(3,6-Dihydro-2H-pyran-4-yl)-N-[4-(6,7-dimethoxyquinolin-4-yl)oxyphenyl]-4-hydroxy-6-methylpyridine-3-carboxamide] | ≤ 100 nM | ≤ 100 nM
4 | COc1cc2nccc(Oc3ccc(NC(=O)c4cnc(C)c(C5=CCCC5)c4O)cc3F)c2cc1OC [Compound 18, 5-(Cyclopenten-1-yl)-N-[4-(6,7-dimethoxyquinolin-4-yl)oxy-3-fluorophenyl]-4-hydroxy-6-methylpyridine-3-carboxamide] | ≤ 100 nM | ≤ 100 nM
5 | COc1cc2nccc(Oc3ccc(NC(=O)c4cnc(C)c(C5=CCOCC5)c4O)cc3F)c2cc1OC [Compound 19, 5-(3,6-Dihydro-2H-pyran-4-yl)-N-[4-(6,7-dimethoxyquinolin-4-yl)oxy-3-fluorophenyl]-4-hydroxy-6-methylpyridine-3-carboxamide] | ≤ 100 nM | ≤ 100 nM
6 | C=C(C)n1c(C)cc(C)c(C(=O)Nc2ccc(Oc3ccnc4cc(OC)c(OC)nc34)c(F)c2)c1=O [Compound 20, N-[4-[(6,7-Dimethoxy-1,5-naphthyridin-4-yl)oxy]-3-fluorophenyl]-4,6-dimethyl-2-oxo-1-prop-1-en-2-ylpyridine-3-carboxamide] | ≤ 100 nM | ≤ 100 nM
7 | C=C(C)n1c(C)cc(C)c(C(=O)Nc2ccc(Oc3ccnc4cc(OC)cnc34)c(F)c2)c1=O [Compound 21, N-[3-Fluoro-4-[(7-methoxy-1,5-naphthyridin-4-yl)oxy]phenyl]-4,6-dimethyl-2-oxo-1-prop-1-en-2-ylpyridine-3-carboxamide] | ≤ 100 nM | ≤ 100 nM
8 | COc1cc2nccc(Oc3ccc(NC(=O)c4c(C)c(Br)c(C)n(C5CCCC5)c4=O)cc3F)c2nc1OC [Compound 22, 5-Bromo-1-cyclopentyl-N-[4-[(6,7-dimethoxy-1,5-naphthyridin-4-yl)oxy]-3-fluorophenyl]-4,6-dimethyl-2-oxopyridine-3-carboxamide] | ≤ 100 nM | ≤ 100 nM
9 | COc1cc2nccc(Oc3ccc(NC(=O)c4cnc(C)c(C5=CCCCC5)c4O)cc3F)c2cc1OC [Compound 23, 5-(Cyclohexen-1-yl)-N-[4-(6,7-dimethoxyquinolin-4-yl)oxy-3-fluorophenyl]-4-hydroxy-6-methylpyridine-3-carboxamide] | ≤ 100 nM | ≤ 100 nM
10 | COc1cc2nccc(Oc3ccc(NC(=O)c4cnc(C)c(C5=CCCCC5)c4O)cc3)c2cc1OC [Compound 24, 5-(Cyclohexen-1-yl)-N-[4-(6,7-dimethoxyquinolin-4-yl)oxyphenyl]-4-hydroxy-6-methylpyridine-3-carboxamide] | ≤ 100 nM | ≤ 100 nM
11 | COc1cc2nccc(Oc3ccc(NC(=O)c4cnc(C)c(/C=C/C5CCCC5)c4O)cc3F)c2nc1OC [Compound 25, 5-[(E)-2-Cyclopentylethenyl]-N-[4-[(6,7-dimethoxy-1,5-naphthyridin-4-yl)oxy]-3-fluorophenyl]-4-hydroxy-6-methylpyridine-3-carboxamide] | ≤ 100 nM | > 300 nM
12 | COc1cc2nccc(Oc3ccc(NC(=O)c4cnc(C)c(/C=C/C5CC5)c4O)cc3F)c2nc1OC [Compound 26, 5-[(E)-2-Cyclopropylethenyl]-N-[4-[(6,7-dimethoxy-1,5-naphthyridin-4-yl)oxy]-3-fluorophenyl]-4-hydroxy-6-methylpyridine-3-carboxamide] | ≤ 100 nM | ≤ 100 nM
13 | COc1cc2nccc(Oc3ccc(NC(=O)c4cnc(C)c(/C=C/C(C)(C)C)c4O)cc3F)c2nc1OC [Compound 27, N-[4-[(6,7-Dimethoxy-1,5-naphthyridin-4-yl)oxy]-3-fluorophenyl]-5-[(E)-3,3-dimethylbut-1-enyl]-4-hydroxy-6-methylpyridine-3-carboxamide] | ≤ 100 nM | ≤ 100 nM
14 | COc1cc2nccc(Oc3ccc(NC(=O)c4cnc(C)c(/C=C/CC(C)C)c4O)cc3F)c2nc1OC [Compound 28, N-[4-[(6,7-Dimethoxy-1,5-naphthyridin-4-yl)oxy]-3-fluorophenyl]-4-hydroxy-6-methyl-5-[(E)-4-methylpent-1-enyl]pyridine-3-carboxamide] | ≤ 100 nM | > 300 nM
15 | COc1cc2nccc(Oc3ccc(NC(=O)c4cnc(C)c(/C=C/CC(C)C)c4O)cc3F)c2cc1OC [Compound 29, N-[4-(6,7-Dimethoxyquinolin-4-yl)oxy-3-fluorophenyl]-4-hydroxy-6-methyl-5-[(E)-4-methylpent-1-enyl]pyridine-3-carboxamide] | ≤ 100 nM | ≤ 100 nM
16 | COc1cc2nccc(Oc3ccc(NC(=O)c4cnc(C)c(/C=C/C(C)(C)C)c4O)cc3F)c2cc1OC [Compound 30, N-[4-(6,7-Dimethoxyquinolin-4-yl)oxy-3-fluorophenyl]-5-[(E)-3,3-dimethylbut-1-enyl]-4-hydroxy-6-methylpyridine-3-carboxamide] | ≤ 100 nM | ≤ 100 nM
17 | COc1cc2nccc(Oc3ccc(NC(=O)c4c(C)nc(C)c(C(C)C)c4O)cc3F)c2nc1OC [Compound 31, N-[4-[(6,7-Dimethoxy-1,5-naphthyridin-4-yl)oxy]-3-fluorophenyl]-4-hydroxy-2,6-dimethyl-5-propan-2-ylpyridine-3-carboxamide] | ≤ 100 nM | ≤ 100 nM
18 | COc1cnc2c(Oc3ccc(NC(=O)c4c(C)nc(C)c(C(C)C)c4O)cc3F)ccnc2c1 [Compound 32, N-[3-Fluoro-4-[(7-methoxy-1,5-naphthyridin-4-yl)oxy]phenyl]-4-hydroxy-2,6-dimethyl-5-propan-2-ylpyridine-3-carboxamide] | ≤ 100 nM | ≤ 100 nM
19 | COCCOc1cc2nccc(Oc3ccc(NC(=O)c4cnc(C)c(C5=CCCC5)c4O)cc3F)c2nc1OC [Compound 33, 5-(Cyclopenten-1-yl)-N-[3-fluoro-4-[[6-methoxy-7-(2-methoxyethoxy)-1,5-naphthyridin-4-yl]oxy]phenyl]-4-hydroxy-6-methylpyridine-3-carboxamide] | ≤ 100 nM | ≤ 100 nM
20 | COCCOc1cc2nccc(Oc3ccc(NC(=O)c4cnc(C)c(C5=CCCCC5)c4O)cc3F)c2nc1OC [Compound 34, 5-(Cyclohexen-1-yl)-N-[3-fluoro-4-[[6-methoxy-7-(2-methoxyethoxy)-1,5-naphthyridin-4-yl]oxy]phenyl]-4-hydroxy-6-methylpyridine-3-carboxamide] | ≤ 100 nM | ≤ 100 nM
21 | COCCOc1cc2nccc(Oc3ccc(NC(=O)c4cnc(C)c(C5=CCOCC5)c4O)cc3F)c2nc1OC [Compound 35, 5-(3,6-Dihydro-2H-pyran-4-yl)-N-[3-fluoro-4-[[6-methoxy-7-(2-methoxyethoxy)-1,5-naphthyridin-4-yl]oxy]phenyl]-4-hydroxy-6-methylpyridine-3-carboxamide] | ≤ 100 nM | ≤ 100 nM
22 | COCCOc1cc2nccc(Oc3ccc(NC(=O)c4cnc(C)c(/C=C/C5CCCC5)c4O)cc3F)c2nc1OC [Compound 36, 5-[(E)-2-Cyclopentylethenyl]-N-[3-fluoro-4-[[6-methoxy-7-(2-methoxyethoxy)-1,5-naphthyridin-4-yl]oxy]phenyl]-4-hydroxy-6-methylpyridine-3-carboxamide] | ≤ 100 nM | ≤ 100 nM
23 | COCCOc1cc2nccc(Oc3ccc(NC(=O)c4cnc(C)c(/C=C/C5CC5)c4O)cc3F)c2nc1OC [Compound 37, 5-[(E)-2-Cyclopropylethenyl]-N-[3-fluoro-4-[[6-methoxy-7-(2-methoxyethoxy)-1,5-naphthyridin-4-yl]oxy]phenyl]-4-hydroxy-6-methylpyridine-3-carboxamide] | ≤ 100 nM | ≤ 100 nM
24 | COc1cc2nccc(Oc3ccc(NC(=O)c4c(C)ccn(C(C)C)c4=O)cc3F)c2nc1OC [Compound 38, N-[4-[(6,7-Dimethoxy-1,5-naphthyridin-4-yl)oxy]-3-fluorophenyl]-4-methyl-2-oxo-1-propan-2-ylpyridine-3-carboxamide] | ≤ 100 nM | > 300 nM
25 | COc1cc2nccc(Oc3ccc(NC(=O)c4c(C)ccn(C(C)C)c4=O)cc3)c2nc1OC [Compound 39, N-[4-[(6,7-Dimethoxy-1,5-naphthyridin-4-yl)oxy]phenyl]-4-methyl-2-oxo-1-propan-2-ylpyridine-3-carboxamide] | ≤ 100 nM | > 300 nM

From US20240158393A1, “PYRIDONE COMPOUNDS AND METHODS OF USE” (Exelixis, Inc., priority 2021, published 2024)
